Measurements: article PMC12302228 (RSC Medicinal Chemistry, 2025)
≈ marks a conversion by molar mass, not a printed value. Where two headings read alike, the source gives them in different places.

Columns and labels:
[1] = system: THP-1; experiment: Antiproliferative activity, MTT assay; assay type: cell-based, human; settings: mean ± SEM
[2] = system: M21; experiment: Antiproliferative activity, SRB assay; assay type: cell-based, human; settings: mean ± SEM
[3] = system: HT-29; experiment: Antiproliferative activity, SRB assay; assay type: cell-based, human; settings: mean ± SEM
[4] = system: MOLM-13 cells; experiment: Differentiation of AML cells, CD11b/CD14 flow cytometry; assay type: cell-based, human; settings: 120 h at 2-fold IC50
[5] = system: MCF7; experiment: Antiproliferative activity, SRB assay; assay type: cell-based, human; settings: mean ± SEM
[6] = physchem; settings: ultrapure water, 37 °C, kinetic from dmso stock
[7] = system: histone H2AX; experiment: H2AX phosphorylation, immunofluorescence in M21 cells; assay type: cell-based, human; settings: 24 h at 2-fold IC50
[8] = system: HL-60; experiment: Antiproliferative activity, MTT assay; assay type: cell-based, human; settings: mean ± SEM
[9] = system: MOLM-13; experiment: Antiproliferative activity, MTT assay; assay type: cell-based, human; settings: read-out: IC50 MOLM-13; 48 h of treatment; mean ± SEM
[10] = system: HT-1080; experiment: Antiproliferative activity, SRB assay; assay type: cell-based, human; settings: read-out: IC50 HT-1080; 48 h of treatment; mean ± SEM
[11] = Metabolic stability in liver microsomes; assay type: in vitro ADME, mouse; settings: for half-life at 4 µM / microsomal CLint at 4 µM: mouse, liver microsomes, pH 7.4; for Clearance category MLM: ranked by CLint
[12] = Metabolic stability in liver microsomes; assay type: in vitro ADME; settings: human, pH 7.4
[13] = molecular target: human DHODH (Homo sapiens, UniProt Q02127); experiment: Human DHODH colorimetric; assay type: biochemical
Sequence of human DHODH (Q02127 whole entry): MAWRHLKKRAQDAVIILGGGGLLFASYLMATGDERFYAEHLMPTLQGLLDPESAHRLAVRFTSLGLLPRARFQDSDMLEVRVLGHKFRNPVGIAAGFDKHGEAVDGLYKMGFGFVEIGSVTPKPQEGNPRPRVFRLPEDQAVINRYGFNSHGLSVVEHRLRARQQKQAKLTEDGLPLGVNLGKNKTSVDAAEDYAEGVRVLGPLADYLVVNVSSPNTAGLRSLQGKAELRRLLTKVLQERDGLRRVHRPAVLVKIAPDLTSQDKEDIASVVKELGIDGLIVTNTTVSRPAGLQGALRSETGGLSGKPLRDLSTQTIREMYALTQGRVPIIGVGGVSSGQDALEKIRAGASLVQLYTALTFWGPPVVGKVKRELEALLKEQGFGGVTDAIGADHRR

[14] = Metabolic stability in liver microsomes; assay type: in vitro ADME; settings: rat, pH 7.4
[15] = system: THP-1 cells; experiment: Differentiation of AML cells, CD11b/CD14 flow cytometry; assay type: cell-based, human; settings: 120 h
[16] = Homo sapiens, M21, 48 h, read-out: IC50 M21, 48 h of treatment
[17] = Homo sapiens, HT-29, 48 h, read-out: IC50 HT-29, 48 h of treatment
[18] = Homo sapiens, MCF7, 48 h, read-out: IC50 MCF7, 48 h of treatment
[19] = read-out: IC50 THP-1, 48 h of treatment
[20] = read-out: IC50 HL-60, 48 h of treatment
[21] = read-out: IC50 M21, 48 h of treatment
[22] = read-out: IC50 HT-29, 48 h of treatment
[23] = read-out: IC50 MCF7, 48 h of treatment
[24] = Homo sapiens, HL-60, 48 h, read-out: IC50 HL-60, 48 h of treatment

SMILES	IC50 [1, 19] [µM]	solubility at 24 h [6] [µg/mL]	IC50 [8, 20] [µM]	IC50 [9] [µM]	IC50 [3, 22] [µM]	IC50 [10] [µM]	IC50 [5, 23] [µM]	Phosphorylation of H2AX into γH2AX (γH2AX foci) [7]	IC50 [2, 21] [µM]	also measured
Cc1c(-c2ccc(-c3ccccc3F)cc2)nc2ccc(F)cc2c1C(=O)O [Brequinar, reference compound]										IC50 ([1]; Homo sapiens, THP-1, 48 h, read-out: IC50 THP-1, 48 h of treatment): 0.17 ± 0.04 µM; IC50 [2, 16]: 0.46 ± 0.05 µM; IC50 [3, 17]: 0.69 ± 0.07 µM; CD11b expression, share of the cell population [4]: 34%; IC50 [5, 18]: 3.8 ± 0.9 µM
CCNC(=O)Nc1ccc(S(=O)(=O)Oc2cccnc2I)cc1 [Compound 2, 2-Iodopyridin-3-yl 4-(3-ethylureido)benzenesulfonate]	3.8 ± 0.6	57 ± 3 (≈ 127 µM)	25 ± 4	0.9 ± 0.3	10.6 ± 0.9	1.4 ± 0.1	11 ± 1	promote the phosphorylation of H2AX into γH2AX	13 ± 2	
CCNC(=O)Nc1ccc(S(=O)(=O)Oc2cccnc2C(C)C)cc1.Cl [Compound 21, 2-Isopropylpyridin-3-yl 4-(3-ethylureido)benzenesulfonate hydrochloride]	6 ± 2	188 ± 1						promote the phosphorylation of H2AX into γH2AX		half-life at 4 µM [11]: 0.95 ± 0.0667 h; microsomal CLint at 4 µM [11]: 25 ± 2 µL/min/mg; Clearance category MLM [11]: medium (medium clearance category for MLM (13.1 < CLint < 71.1)); IC50 [8, 24]: 50 ± 10 µM; IC50 [2, 16]: 11 ± 1 µM; half-life at 4 µM [12]: 1.48 ± 0.0333 h; microsomal CLint at 4 µM [12]: 15.7 ± 0.3 µL/min/mg; IC50 [3, 17]: 8 ± 0.3 µM; IC50 [13]: 0.012 µM; half-life at 4 µM [14]: 2.5 ± 0.5 h; microsomal CLint at 4 µM [14]: 11 ± 2 µL/min/mg; CD11b expression, share of the cell population [4]: 26%; CD11b and CD14 positivity, share of the cell population [15]: 57%; IC50 [5, 18]: 24 ± 3 µM
CCNC(=O)Nc1ccc(S(=O)(=O)Oc2cnccc2Br)cc1.Cl [Compound 30, 4-Bromopyridin-3-yl 4-(3-ethylureido)benzenesulfonate hydrochloride]	6 ± 2	122 ± 4	80 ± 5	3.7 ± 0.5	45 ± 4	6.7 ± 0.4	45 ± 4		44 ± 3	
CCNC(=O)Nc1ccc(S(=O)(=O)Oc2cnccc2C)cc1.Cl [Compound 32, 4-Methylpyridin-3-yl 4-(3-ethylureido)benzenesulfonate hydrochloride]	2.9 ± 0.1	98 ± 7	> 100	2.4 ± 0.3	9.6 ± 0.7	5.9 ± 0.7	26 ± 2		35 ± 4	
CCCNC(=O)Nc1ccc(S(=O)(=O)Oc2cnccc2Br)cc1.Cl [Compound 33, 4-Bromopyridin-3-yl 4-(3-propylureido)benzenesulfonate hydrochloride]	4.1 ± 0.7	124 ± 2	40 ± 10	6 ± 1	30 ± 1	10 ± 0.8	24 ± 2		40 ± 1	
CCCNC(=O)Nc1ccc(S(=O)(=O)Oc2cnccc2C)cc1.Cl [Compound 35, 4-Methylpyridin-3-yl 4-(3-propylureido)benzenesulfonate hydrochloride]	5 ± 2	138 ± 2	16.3 ± 0.1	9.2 ± 0.8	39 ± 2	21 ± 2	58 ± 8		56 ± 3	

The remaining molecules from weak to strong by IC50 [1, 19], led by results:

IC50 [1, 19] [µM]	solubility at 24 h [6] [µg/mL]	IC50 [8, 20] [µM]	IC50 [9] [µM]	IC50 [3, 22] [µM]	IC50 [10] [µM]	IC50 [5, 23] [µM]	SMILES	Phosphorylation of H2AX into γH2AX (γH2AX foci) [7]	IC50 [2, 21] [µM]	also measured
2.2 ± 0.3	165 ± 3	32 ± 9	1.4 ± 0.4	11 ± 1	5.3 ± 0.4	19 ± 3	CCNC(=O)Nc1ccc(S(=O)(=O)Oc2cnccc2I)cc1.Cl [Compound 31, 4-Iodopyridin-3-yl 4-(3-ethylureido)benzenesulfonate hydrochloride]		11 ± 1	
2.1 ± 0.6	130 ± 10	> 50	2.7 ± 0.5	14 ± 1	5.9 ± 0.5	13 ± 1	CCCNC(=O)Nc1ccc(S(=O)(=O)Oc2cnccc2I)cc1.Cl [Compound 34, 4-Iodopyridin-3-yl 4-(3-propylureido)benzenesulfonate hydrochloride]		21 ± 2	
1.5 ± 0.3	40 ± 3 (≈ 110 µM)	29 ± 6	0.8 ± 0.2	8.4 ± 0.7	1.2 ± 0.2	19 ± 2	CCNC(=O)Nc1ccc(S(=O)(=O)Oc2cccnc2C(C)C)cc1 [Compound 3, 2-Isopropylpyridin-3-yl 4-(3-ethylureido)benzenesulfonate]	promote the phosphorylation of H2AX into γH2AX	7 ± 1	
1.1 ± 0.5	190 ± 10						CCNC(=O)Nc1ccc(S(=O)(=O)Oc2cccnc2I)cc1.Cl [Compound 20, 2-Iodopyridin-3-yl 4-(3-ethylureido)benzenesulfonate hydrochloride]	promote the phosphorylation of H2AX into γH2AX		half-life at 4 µM [11]: 1.33 ± 0.167 h; microsomal CLint at 4 µM [11]: 18 ± 2 µL/min/mg; Clearance category MLM [11]: medium (medium clearance category for MLM (13.1 < CLint < 71.1)); IC50 [8, 24]: 37 ± 6 µM; IC50 [2, 16]: 7.7 ± 0.7 µM; half-life at 4 µM [12]: 3.6 ± 0.167 h; microsomal CLint at 4 µM [12]: 6.5 ± 0.3 µL/min/mg; IC50 [3, 17]: 6.8 ± 0.6 µM; IC50 [13]: 0.031 µM; half-life at 4 µM [14]: 3.17 ± 0.333 h; microsomal CLint at 4 µM [14]: 7.4 ± 0.6 µL/min/mg; CD11b expression, share of the cell population [4]: 38%; IC50 [5, 18]: 12 ± 1 µM
0.9 ± 0.2	154 ± 7	3 ± 1	0.7 ± 0.2	2.3 ± 0.1	1.2 ± 0.2	3.8 ± 0.3	Cl.O=C(NCCCl)Nc1ccc(S(=O)(=O)Oc2cnccc2I)cc1 [Compound 36, 4-Iodopyridin-3-yl 4-(3-(2-chloroethyl)ureido)benzenesulfonate hydrochloride]		3.5 ± 0.4	
